Measured values: patent publication US20230288403A1, “METHOD FOR INDUCING EXTRACELLULAR TRAP (ET) FORMATION” (Tridek-One Therapeutics, priority 2022, published 2023)
Entries after “also recorded” stand apart in the source; their conditions may differ.

Legend:
Format in all cases: cell-based
[1] = system: human peripheral blood neutrophils; assay: NET formation by live cell fluorescent microscopy (Sytox Green) with computer-assisted image analysis
Method: (§1) Human polyvalent immunoglobulins (or human polyvalent Ig) also referred to as intravenous immunoglobulin or IVIg (Privigen, CSL Behring LLC) or human serum albumin or HSA (Sigma Aldrich—reference: H5667), used as negative control, diluted in coating solution (DPBS Gibco—reference: 14190) were allowed to adsorb for 2 hours at room temperature on high-binding, sterile 96-well plates suitable for fluorescence microscopy (Greiner Bio-One, Frickenhausen, Germany). Unless indicated otherwise, deposits of human polyvalent Ig were obtained with a coating solution (DPBS no calcium, no magnesium (ThermoFisher—reference: 14190) consisting of KCl 2.67 mM, KH2PO4 1.47 mM, NaCl 137.9 mM, Na2HPO4-7H2O 8.06 mM) comprising human polyvalent Ig at a concentration of 100 μg/mL. Similarly, unless indicated otherwise, deposits of HSA were obtained with a coating solution comprising HSA at a concentration of 100 μg/mL. Phorbol-12-myristate-13-acetate or PMA (Sigma Aldrich—reference: P8139) was used as positive control. PMA was added to the culture medium at a final concentration of nM. In some experiments (see FIG. 5A), human polyvalent Ig were added in the culture medium at a final concentration ranging from 3 to 300 μg/mL.
(§2) Neutrophils were isolated from the peripheral blood of healthy human donors by negative magnetic bead selection using a commercially available kit (STEMCELL Technologies—reference: 19666). Isolated neutrophils were then distributed in 96-well plates (Greiner Bio-One, Frickenhausen, Germany), in particular in 96-well plates coated with human polyvalent Ig or HSA as described above, at a concentration of 7.5×10^4 cells per well, corresponding to 10^6 cells/mL of culture medium. Neutrophils were then cultured in HBSS with calcium and magnesium (Gibco—reference: 24020-091) under standard conditions (i.e., humidified incubator 37° C. and 5% CO2). […]
(§3) High-binding, sterile 96-well plates (Greiner Bio-One, Frickenhausen, Germany) were coated with human polyvalent Ig as described in Example 1, using a coating solution comprising human polyvalent Ig at a concentration ranging from 3 to 300 μg/mL, as indicated. If no indication is given, deposits of human polyvalent Ig were obtained with a coating solution comprising human polyvalent Ig at a concentration of 100 μg/mL.
(§4) Where indicated, the SYK inhibitor BAY-61-3606, obtained from Selleckchem (reference: S7006), was added to the culture medium at a final concentration ranging from 0.05 to 5 (0.05, 0.1, 0.5, 1, 5 as indicated). Where indicated, the calcineurin inhibitor FK506 (also known as tacrolimus), obtained from ASTELLAS PHARMA (PROGRAF™ 5 mg/ml), was added to the culture medium at a final concentration ranging from 0.3 to 100 nM (0.3, 1, 3, 10, 30, 100 nM, as indicated). Where indicated, the humanized monoclonal antibody motavizumab directed against the respiratory syncytial virus (RSV), produced as a human IgG4 (by Evitria, Zurich, Switzerland), was added to the culture medium at a final concentration ranging from 1 to 100 μg/mL (1, 3, 10, 30, 100 μg/mL, as indicated). Human IgG4 can engage FcRI (CD64) and enhance the activation of human neutrophils triggered by immobilized immunoglobulins, which is mediated by FcRIIa and FcRIIIb, by the engagement of an additional signaling pathway.
Human peripheral blood neutrophils were isolated and cultured as described in Example 1. In particular, freshly isolated peripheral blood neutrophils were distributed in coated plate as described in Example 1 (7.5×10^4 cells per well, corresponding to 10^6 cells/mL of culture medium) and cultured for the indicated time.
The fluorescent, cell-impermeant, nucleic acid dye Sytox Green was added to the culture medium at a concentration of 1 μM to detect NET formation. ROS (reactive oxygen species) formation was identified by the use of a fluorescent oxidative-sensitive probe (CM-H2DCFDA, ThermoFisher Scientific—reference: C6827). […]

[2] = system: human peripheral blood neutrophils; assay: ROS formation with the oxidative-sensitive fluorescent probe CM-H2DCFDA, live cell imaging; conditions: inhibitor 0 to 5 μM; plates coated with 100 μg/mL human polyvalent Ig; 6 hours
Method: as §3
as §4, with “Human IgG4 can engage FcRI (CD64) and enhance the activation of human neutrophils triggered by immobilized immunoglobulins, which is mediated by FcRIIa and FcRIIIb, by the engagement of an additional signaling pathway.” left out
Time-lapse images were acquired by live cell fluorescent microscopy. Quantitative time-course measure of ROS and NET formation was performed by computer-assisted image analysis (data are expressed as GCU/well).

[3] = system: human peripheral blood eosinophils; assay: EET formation by eosinophils, live cell fluorescent microscopy (Sytox Green); conditions: 5 μM inhibitor; 100 μg/mL of human polyvalent Ig
Method: High-binding, sterile 96-well plates (Greiner Bio-One, Frickenhausen, Germany) were coated with human polyvalent Ig as described in Example 1, using a coating solution comprising human polyvalent Ig at a concentration ranging from 10 to 300 μg/mL, as indicated.
Where indicated, the SYK inhibitor BAY-61-3606, obtained from Selleckchem (reference: S7006), was added to the culture medium at a final concentration of 5 μM.
as §2, with “Eosinophils” for “Neutrophils”, “19656).” for “19666).”, “eosinophils” for “neutrophils”, “bovine serum albumin (negative control)” for “HSA”, “1.5×10^4” for “7.5×10^4”, “2×10^5” for “10^6”
Time-lapse images were acquired by live cell fluorescent microscopy. Quantitative time-course measure of EET formation was performed by computer-assisted image analysis (data are expressed as GCU/well).

[4] = system: human peripheral whole blood; assay: ET formation in diluted whole blood, live cell fluorescent microscopy (Sytox Green); conditions: 5 μM inhibitor; 20 μg/mL of human polyvalent Ig; whole blood 1/10 dilution
Method: High-binding, sterile 96-well plates (Greiner Bio-One, Frickenhausen, Germany) were coated with human polyvalent Ig as described in Example 1, using a coating solution comprising human polyvalent Ig at a concentration ranging from 10 to 80 μg/mL, as indicated.
Where indicated, the SYK inhibitor BAY-61-3606, obtained from Selleckchem (reference: S7006), was added to the whole blood samples diluted in culture medium at a final concentration of 5 μM.
Fresh human peripheral whole blood was collected from healthy donors and diluted ten times (1/10 dilution) in culture medium containing cell-impermeant, nucleic acid dye Sytox Green at a concentration of 1 μM to detect ET formation. Diluted whole blood was then distributed in 96-well plates (Greiner Bio-One, Frickenhausen, Germany), in particular in 96-well plates coated with human polyvalent Ig or bovine serum albumin (negative control) as described above.
Time-lapse images were acquired by live cell fluorescent microscopy. Quantitative time-course measure of ET formation was performed by computer-assisted image analysis (data are expressed as GCU/well).

[5] = system: human peripheral blood neutrophils; assay: NET detection in fixed neutrophils by fluorescence microscopy (Sytox Green, nuclear morphology); conditions: 4 hours of culture, plate-bound human polyvalent Ig (coating solution 100 μg/mL) or PMA (25 nM) in culture medium
Method: as §1, with “300 μg/mL. […]” for “300 μg/mL.”
Images were acquired by fluorescence microscopy in the green channel. […]

[6] = 24-hour live imaging, plate-bound human polyvalent Ig (coating solution 100 μg/mL) or PMA 25 nM

COc1ccc(-c2cc3nccn3c(Nc3ncccc3C(N)=O)n2)cc1OC [BAY-61-3606]
NET formation induced by immobilized human polyvalent Ig ([1]; inhibitor 0 to 5 μM, plates coated with 100 μg/mL human polyvalent Ig, 6 hours): decreased
NET formation elicited by motavizumab plus immobilized human polyvalent Ig ([1]; inhibitor at a concentration of 5, 100 μg/mL motavizumab and immobilized human polyvalent Ig (100 μg/mL coating)): completely abolishes the NET formation
ROS production induced by immobilized human polyvalent Ig [2]: decreased
EET formation induced by immobilized human polyvalent Ig [3]: no EET formation
ET formation induced by immobilized human polyvalent Ig [4]: no ET formation

CCCCCCCCCCCCCC(=O)O[C@@H]1[C@@H](C)[C@@]2(O)[C@@H](C=C(CO)C[C@]3(O)C(=O)C(C)=C[C@@H]23)[C@@H]2C(C)(C)[C@]12OC(C)=O [PMA, phorbol 12-myristate 13-acetate]
NET formation (nuclear morphology of neutrophils) [5]: most neutrophils displayed signs of NETosis
NET formation rate change [1, 6]: causes NET formation from all neutrophils at once
NET formation time course [1, 6]: NET induction was visible on almost all neutrophils from 3-hour culture; also recorded: drives the simultaneous formation of NETs from a great number of neutrophils, within as soon as 3 hours of culture

B1: motavizumab: humanized monoclonal antibody directed against the respiratory syncytial virus (RSV), produced as a human IgG4 (antibody, chains of the INN, looked up, V domains shown)
VH: QVTLRESGPALVKPTQTLTLTCTFSGFSLSTAGMSVGWIRQPPGKALEWLADIWWDDKKHYNPSLKDRLTISKDTSKNQVVLKVTNMDPADTATYYCARDMIFNFYFDVWGQGTTVTVSS
VL: DIQMTQSPSTLSASVGDRVTITCSASSRVGYMHWYQQKPGKAPKLLIYDTSKLASGVPSRFSGSGSGTEFTLTISSLQPDDFATYYCFQGSGYPFTFGGGTKVEIK
modifications: IgG4
notes: humanized monoclonal antibody directed against the respiratory syncytial virus (RSV), produced as a human IgG4
NET formation in presence of immobilized human polyvalent Ig ([1]; antibody 0 to 100 μg/mL in culture medium, plates coated with 100 μg/mL human polyvalent Ig, compared to coated IVIG without motavizumab): drives a proportional increase in the formation of NETs
NET formation in absence of immobilized immunoglobulins ([1]; antibody 0 to 100 μg/mL in culture medium, uncoated 96-well plates): is not able to drive the formation of NETs
